Where two headings read alike, the source gives them in different places.
Columns and labels:
[1] = tested on: tracheal smooth muscle from guinea pigs (contraction induced by 3 × 10^−6 mol/L of CCh); assay: Antagonism in vitro of contraction of isolated tracheal smooth muscle from guinea pigs induced by carbachol (CCh); format: cell-based, guinea pig
[2] = tested on: tracheal smooth muscle from guinea pigs (contraction induced by 3 × 10^−6 mol/L of CCh); assay: as above; format: cell-based, guinea pig; details: cumulative dosing
Text: Preparation of the Isolated Tracheal Smooth Muscle Specimen from a Guinea Pig:
After a guinea pig was narcotized with urethane, the trachea between the throat and carina of the guinea pig was taken out rapidly, and placed in the Krebs-Henseleit (K-H) solution (composition (g/L): NaCl 6.92, KCl 0.35, CaCl2 0.28, KH2PO4 0.16, MgSO4.7H2O 0.4568, NaHCO3 2.1, Glucose 2.0) with a mixture gas of 5% CO2 and 95% O2 purged. After loose connective tissues and fats around the trachea were separated, the trachea was cut into trachea pieces having a width of about 3 mm and a length of 20 mm by a surgical scissor, with both ends of the trachea piece ligated with 4˜0 silk suture, and then placed into a thermostatic bath containing 5 ml of K—H solution (pH 7.4) at 37° C., with the mixture gas of 5% CO2 and 95% O2 continuously purged. A muscle tension transducer was connected to the upper end so as to apply 1.0 g of resting tension to the specimen, the change of the tension was recorded, the culture solution was replaced every 20 min, and the test was started after being balanced for 60 min.
Administration method: After the trachea piece was stabilized, 3×10^−6 mol/L of CCh was added into a bath, and after the contractile tension of the trachea piece reached a peak level, the example compounds, ipratropium bromide and tiotropium bromide were added into a Magnus bath by a cumulative dosing regimen with a dosage of 10^−9˜10^−5 mol, respectively, and the diastolic condition of the trachea piece was observed: if no response occurred (below the threshold concentration), a next dosage was continued to be added in sequence; if response occurred, after it reached a diastolic plateau, a next dosage was further added. The above operation was repeated until the contractile curve reached the minimum value. Finally, 10^−6 mol/L of isoprenaline was added so that the maximum relaxation would be reached and the curve was recorded.
Statistical approach: The result was expressed as mean ±standard deviation, and counted by Sigma Stat statistical package. The data was analyzed by using variance analysis, the comparison among means of a plurality of specimen was performed by using Student-Newman-Keuls(SNK) test; statistical significant level α=0.05 (bilateral).
Compounds shown in Table 5 were further prepared according to the present invention, and their IC50 […] of resistance to the contraction of tracheal smooth muscle from guinea pigs induced by a concentration of 3×10^−6 mol/L of CCh was determined.

[3] = tested on: m1, m2 and m3 subtypes of M receptor; assay: Competitive [3H]-QNB binding on membranes of CHO cells transfected with m1, m2, m3; selectivity on subtypes of M receptor; details: ratio of Ki, n = 6
[4] = tested on: bronchus in guinea pigs (contractile response induced by Mch); assay: Antagonism of contractile response of bronchus in guinea pigs induced by methacholine (Mch); airway resistance and pulmonary dynamic compliance; format: in vivo, guinea pig; details: Mch 10 μg/kg iv after 30 min; for Cdyn(ml/cm H2O) / Raw (cm H2O/ml/s): Mean ± S.E.M
Text: Determination of tidal volume, airway flow rate, and transpulmonary pressure: 1.5 g/kg of urethane was intraperitoneally injected to narcotize the guinea pig. The guinea pig was fixed supinely and treated with tracheal intubation, and the external jugular vein was separated and an indwelling needle was inserted; the guinea pig was enclosed into a body plethysmograph, a blunt needle for intubation into thoracic cavity was inserted between ribs 4˜5 of the prothorax of the guinea pig, and the intrathoracic pressure could be measured (with a negative value of a water column of a water manometer and a fluctuation with the breath of the guinea pig as marks). After stabilization, the values of the tidal volume, airway flow rate and transpulmonary pressure of the guinea pig prior to administration of Mch were recorded by a MedLab biological signal collection and processing system as base values. 10 μg/kg body weight of Mch was intravenously injected. The changes of the airway flow rate, tidal volume and transpulmonary pressure of the guinea pig within 5 minutes were observed. Calculation of Raw and Cdyn: the changes of the increased percentage of Raw value and the decreased percentage of Cdyn after […] of Mch were calculated.
Calculation formulas of Raw and Cdyn were respectively: […]
Dose-effect relationship: For each of the example compounds, 27 guinea pigs were randomly divided into […]: a solvent control group with […], a group with 1 μg/kg of the example compounds 4, 10, 14, and 26, a group with 3 μg/kg of the example compounds 4, 10, 14, and 26 and a group with 10 μg/kg of the example compounds 4, 10, 14, and 26; after 30 min from the dropping of the above concentration of drugs in the airway, 10 μg/kg body weight of Mch was intravenously injected for excitation, and airway resistance (Raw) and pulmonary dynamic compliance (Cdyn) within 5 min were determined. […]

Compound | Onset time [1] | Time for eliminating inhibition effect (min) [1] | Selectivity m1/m2, Mx/My = Ki(y)/Ki(x) [3] | Selectivity m1/m3, Mx/My = Ki(y)/Ki(x) [3] | Selectivity m2/m3, Mx/My = Ki(y)/Ki(x) [3] | further results
OC(CO[C@@H]1C[N+]2(CCCOc3ccccc3)CCC1CC2)(c1ccccc1)C1CCC1.[Br-] (stereo partly drawn) [Example 16, (2R,3R)-3-[(2-cyclobutyl-2-hydroxyl-2-phenyl)ethoxyl]-1-(3-phenoxypropyl)-1-azabicyclo[2,2,2]octane bromide] | 6.38 min | more than 300 min | 13.5 | 0.67 | 0.037 | IC50 ([2]; read-out: IC50 (μM), antagonism in vitro against the contraction of the tracheal smooth muscle induced by CCh, 3 × 10^−6 mol/L of CCh): 0.0573 µM
O[C@@](CO[C@@H]1C[N+]2(CCOc3ccccc3)CCC1CC2)(c1ccccc1)C1CCCC1.[Br-] [Example 26, (2R,3R)-3-[(2-cyclopentyl-2-hydroxyl-2-phenyl)ethoxyl]-1-(2-phenoxyethyl)-1-azabicyclo[2,2,2]octane bromide] | 6.14 min | more than 300 min | – | – | – | inhibition ratio against the decrease of pulmonary dynamic compliance ([4]; 1 μg/kg dropped in the airway): 11.0%; inhibition ratio against the increase of airway resistance ([4]; 1 μg/kg dropped in the airway): 64.4%; Cdyn(ml/cm H2O) ([4]; 1 μg/kg dropped in the airway): 0.103 ± 0.014 ml/cm H2O; Raw (cm H2O/ml/s) ([4]; 1 μg/kg dropped in the airway): 0.739 ± 0.085 cm H2O/ml/s; inhibition ratio against the decrease of pulmonary dynamic compliance ([4]; 3 μg/kg dropped in the airway): 47.1%; inhibition ratio against the increase of airway resistance ([4]; 3 μg/kg dropped in the airway): 87.2%; Cdyn(ml/cm H2O) ([4]; 3 μg/kg dropped in the airway): 0.143 ± 0.016 ml/cm H2O; Raw (cm H2O/ml/s) ([4]; 3 μg/kg dropped in the airway): 0.531 ± 0.063 cm H2O/ml/s; inhibition ratio against the decrease of pulmonary dynamic compliance ([4]; 10 μg/kg dropped in the airway): 49.9%; inhibition ratio against the increase of airway resistance ([4]; 10 μg/kg dropped in the airway): 92.1%; Cdyn(ml/cm H2O) ([4]; 10 μg/kg dropped in the airway): 0.205 ± 0.018 ml/cm H2O; Raw (cm H2O/ml/s) ([4]; 10 μg/kg dropped in the airway): 0.493 ± 0.083 cm H2O/ml/s; IC50 ([2]; Cavia porcellus, read-out: IC50 (μM), antagonism in vitro against the contraction of the tracheal smooth muscle induced by CCh, 3 × 10^−6 mol/L of CCh): 0.0235 µM
CC[N+](CC)(CC)CCOc1cccc(OCC[N+](CC)(CC)CC)c1OCC[N+](CC)(CC)CC [Gallamine, reference compound] | – | – | 0.011 | 0.676 | 60.26 | –
CN1CCN(CC(=O)N2c3ccccc3C(=O)Nc3cccnc32)CC1 [Pirenzepine, reference compound] | – | – | 169.82 | 13.49 | 0.079 | –
(2R,3S),(2S,3R)-3-[(2-cyclopentyl-2-hydroxyl-2-phenyl)ethoxyl]-1-(3-phenoxypropyl)-1-azabicyclo[2,2,2]octane bromide [Example 5] | 7.01 min | more than 300 min | 45.6 | 0.502 | 0.011 | IC50 ([2]; 3 × 10^−6 mol/L of CCh, read-out: IC50 (μM), antagonism in vitro against the contraction of the tracheal smooth muscle induced by CCh): 1.03 µM

— patent US9751875B2, “Quinine compounds, and optical isomers, preparation method and medical use thereof” (BEIJING FSWELCOME TECHNOLOGY DEVELOPMENT CO., LTD., priority 2013, dated 2017)
